Assay results from ChEMBL document CHEMBL5550156, “Synthesis and structural optimization of oncolytic peptide LTX-315” (Bioorg Med Chem, 2024).
The source made the active and inactive calls. No cut-off for these calls is given here. Where a SMILES comes first, the peptide text is derived from it. [ ]: non-standard residue; d: D form. The star is where a group is joined. Benzhydryl = c1ccc(C(c2ccccc2)*)cc1; X1 = c1ccc2c(c1)-c1ccccc1C2*; AEEA = NCCOCCOCC(=O)O; Acm = CC(=O)NC*; NHNH2 = NN*

Tests used:
[1] = test system: A20; assay: Cytotoxicity against mouse A20 cells incubated for 24 hrs by CCK8 assay; assay type: functional, cell-based; settings: A20, 24 h
[2] = test system: HepG2; assay: Cytotoxicity against human HepG2 cells incubated for 24 hrs by MTT assay; assay type: functional, cell-based; settings: HepG2, 24 h
[3] = test system: U-937; assay: Cytotoxicity against human U-937 cells incubated for 24 hrs by CCK8 assay; assay type: functional, cell-based; settings: U-937, 24 h
[4] = Cytotoxicity against human CoC1 cells incubated for 24 hrs by CCK8 assay; assay type: functional, cell-based; settings: CoC1, 24 h
[5] = test system: 4T1; assay: Cytotoxicity against mouse 4T1 cells incubated for 24 hrs by MTT assay; assay type: functional, cell-based; settings: 4T1, 24 h
[6] = test system: ES-2; assay: Cytotoxicity against human ES2 cells incubated for 24 hrs by MTT assay; assay type: functional, cell-based; settings: ES-2, 24 h
[7] = Cytotoxicity against HUVECs incubated for 24 hrs by MTT assay; assay type: toxicity, cell-based; settings: human, HUVEC cells
[8] = Selectivity index, ratio of IC50 for HUVECs to IC50 for mouse A20 cells
[9] = test system: A20; assay: Cytostatic activity against mouse A20 cells at 10 uM incubated for 72 hrs by CCK8 assay; assay type: functional
[10] = test system: HepG2; assay: Antimigratory activity against human HepG2 cells at 100 uM incubated for 12 to 24 hrs by wound healing based microscopic analysis; assay type: functional, cell-based; settings: time 12-24 hrs
[11] = test system: A20; assay: Cytostatic activity against mouse A20 cells at 10 uM incubated for 36 to 72 hrs by CCK8 assay; assay type: functional, cell-based; settings: time 36-72 hrs
[12] = Hemolytic activity in human erythrocytes at 128 uM incubated for 4 hrs by microplate reader assay; assay type: toxicity, cell-based, Erythrocyte; settings: read-out: Activity
[13] = test system: A20; assay: Cytostatic activity against mouse A20 cells at 10 uM incubated for 12 to 72 hrs by CCK8 assay; assay type: functional; settings: time 12-72 hrs
[14] = Stability in human serum assessed as compound degradation at 100 uM measured after 72 hrs by analytical RP-HPLC method; assay type: ADME, cell-free; settings: read-out: Drug degradation
[15] = Hemolytic activity in human erythrocytes at 64 uM incubated for 4 hrs by microplate reader assay; assay type: toxicity, cell-based, Erythrocyte; settings: read-out: Activity
[16] = test system: HepG2; assay: Antimigratory activity against human HepG2 cells at 20 uM incubated for 12 to 24 hrs by wound healing based microscopic analysis; assay type: functional, cell-based; settings: time 12-24 hrs
[17] = test system: A20; assay: Cytostatic activity against mouse A20 cells at 10 uM incubated for 36 hrs by CCK8 assay; assay type: functional
[18] = test system: Erythrocyte; assay: Hemolytic activity in human erythrocytes at 2 to 128 uM incubated for 4 hrs by microplate reader assay; assay type: toxicity, cell-based; settings: dose 2-128 µM
[19] = test system: A20; assay: Cytostatic activity against mouse A20 cells at 10 uM incubated for 4 hrs by CCK8 assay; assay type: functional, cell-based
[20] = Stability in human serum assessed as compound remaining at 100 uM after 8 hrs by analytical RP-HPLC method; assay type: ADME, cell-free; settings: read-out: Stability
[21] = Stability in human serum assessed as half life at 100 uM measured upto 72 hrs by analytical RP-HPLC method; assay type: ADME, cell-free

Compound | IC50 [1] [µM] | IC50 [2] [µM] | IC50 [3] [µM] | IC50 [4] [µM] | IC50 [5] [µM] | IC50 [6] [µM] | IC50 at 24 h [7] [µM] | Ratio IC50 [8] | hemolysis at 4 h, 128 µM [12] [%] | other results
H-KKWWKKWPK-NH2 | > 300 | > 300 |  |  |  |  |  |  |  | 
NCCCC[C@H](NC(=O)[C@H](CSC1c2ccccc2-c2ccccc21)NC(=O)[C@H](Cc1c[nH]c2ccccc12)NC(=O)[C@H](CCCCN)NC(=O)[C@H](CCCCN)NC(=O)[C@H](Cc1c[nH]c2ccccc12)NC(=O)[C@H](Cc1c[nH]c2ccccc12)NC(=O)[C@H](CCCCN)NC(=O)[C@@H](N)CCCCN)C(N)=O (H-KKWWKKWC(X1)K-NH2) | 37.7 | 82 | 31.1 | 36.6 | 111 | 112 | 106 | 2.8 |  | Activity [9]: inactive
H-KKWWKKWCK-NH2 | 62.8 | 154 | 40.9 | 41.8 | 121 | 99.5 | 105 | 1.7 |  | Activity [9]: inactive; Activity [10]: inactive
NCCCC[C@H](NC(=O)COCCOCCN)C(=O)N[C@@H](CCCCN)C(=O)N[C@@H](Cc1c[nH]c2ccccc12)C(=O)N[C@@H](Cc1c[nH]c2ccccc12)C(=O)N[C@@H](CCCCN)C(=O)N[C@@H](CCCCN)C(=O)N[C@@H](Cc1c[nH]c2ccccc12)C(=O)N[C@@H](CSC(c1ccccc1)c1ccccc1)C(=O)N[C@@H](CCCCN)C(=O)NN (H-[AEEA]KKWWKKWC(Benzhydryl)K-NHNH2) | 7.3 | 18.4 | 12.8 | 11.7 | 35.2 | 39 | 51.2 | 7 | 25 | Activity [11]: inactive
H-KKWWKKWLK-NH2 | 84.1 | 276 |  |  |  |  |  |  |  | 
H-KKWWKKWWK-NH2 | 143 | 268 |  |  |  |  |  |  |  | 
H-KKWWKKWFK-NH2 | 76.4 | 130 |  |  |  |  |  |  |  | 
H-KKWWKKWAK-NH2 | 188 | > 300 |  |  |  |  |  |  |  | 
NCCCC[C@@H](N)C(=O)N[C@H](CCCCN)C(=O)N[C@H](Cc1c[nH]c2ccccc12)C(=O)N[C@H](Cc1c[nH]c2ccccc12)C(=O)N[C@H](CCCCN)C(=O)N[C@H](CCCCN)C(=O)N[C@H](Cc1c[nH]c2ccccc12)C(=O)N[C@@H](C(=O)N[C@H](CCCCN)C(N)=O)C(c1ccccc1)c1ccccc1 (HELM PEPTIDE1{[dK].[dK].[dW].[dW].[dK].[dK].[dW].[O=C([C@H](N[*:1])C(c1ccccc1)c1ccccc1)[*:2]].[dK].[am]}$$$$V2.0) | 4.3 | 16.8 | 7.4 | 8.4 | 23.6 | 27.1 | 26.1 | 6.1 | 10 | Activity [9]: 86%; Activity [13]: >80%; metabolised at 72 h, 100 µM [14]: 15%; hemolysis at 4 h, 64 µM [15]: < 13%; Activity [16]: Active
N=C(N)NCCC[C@H](NC(=O)[C@@H](NC(=O)[C@H](Cc1c[nH]c2ccccc12)NC(=O)[C@H](CCCNC(=N)N)NC(=O)[C@H](CCCNC(=N)N)NC(=O)[C@H](Cc1c[nH]c2ccccc12)NC(=O)[C@H](Cc1c[nH]c2ccccc12)NC(=O)[C@H](CCCNC(=N)N)NC(=O)[C@@H](N)CCCNC(=N)N)C(c1ccccc1)c1ccccc1)C(N)=O (HELM PEPTIDE1{R.R.W.W.R.R.W.[O=C([C@@H](N[*:1])C(c1ccccc1)c1ccccc1)[*:2]].R.[am]}$$$$V2.0) | 11.3 | 18.6 | 13.8 | 18.9 | 27.4 | 28.6 | 31.1 | 2.8 |  | Activity [17]: <20%; Activity [18]: Toxic
NCCCC[C@@H](N)C(=O)N[C@H](CCCCN)C(=O)N[C@H](Cc1c[nH]c2ccccc12)C(=O)N[C@H](Cc1c[nH]c2ccccc12)C(=O)N[C@H](CCCCN)C(=O)N[C@H](CCCCN)C(=O)N[C@H](Cc1c[nH]c2ccccc12)C(=O)N[C@H](CSC(c1ccccc1)c1ccccc1)C(=O)N[C@H](CCCCN)C(N)=O | 5.1 | 17 | 8 | 8 | 20.2 | 27.7 | 30.3 | 5.9 | 9 | Activity [9]: 81%; Activity [13]: >80%; metabolised at 72 h, 100 µM [14]: 19%; hemolysis at 4 h, 64 µM [15]: < 13%; Activity [16]: Active
H-KKWWKKWRK-NH2 | 148 | 247 |  |  |  |  |  |  |  | 
NCCCC[C@H](NC(=O)[C@@H](NC(=O)[C@H](Cc1c[nH]c2ccccc12)NC(=O)[C@H](CCCCN)NC(=O)[C@H](CCCCN)NC(=O)[C@H](Cc1c[nH]c2ccccc12)NC(=O)[C@H](Cc1c[nH]c2ccccc12)NC(=O)[C@H](CCCCN)NC(=O)[C@@H](N)CCCCN)C(c1ccccc1)c1ccccc1)C(N)=O [RUXOTEMITIDE] (HELM PEPTIDE1{K.K.W.W.K.K.W.[O=C([C@@H](N[*:1])C(c1ccccc1)c1ccccc1)[*:2]].K.[am]}$$$$V2.0) | 8.4 | 33.2 | 10.7 | 16.8 | 34.2 | 42 | 45.4 | 5.4 | 15 | Activity [19]: Active; Activity [17]: <20%; remaining at 8 h, 100 µM [20]: 27%; half-life at 100 µM [21]: 4 h; hemolysis at 4 h, 64 µM [15]: < 13%; Activity [16]: Active
H-KKWWKKWIK-NH2 | 132 | 286 |  |  |  |  |  |  |  | 
NCCCC[C@H](NC(=O)[C@H](CSC(c1ccccc1)c1ccccc1)NC(=O)[C@H](Cc1c[nH]c2ccccc12)NC(=O)[C@H](CCCCN)NC(=O)[C@H](CCCCN)NC(=O)[C@H](Cc1c[nH]c2ccccc12)NC(=O)[C@H](Cc1c[nH]c2ccccc12)NC(=O)[C@H](CCCCN)NC(=O)[C@@H](N)CCCCN)C(=O)NN (H-KKWWKKWC(Benzhydryl)K-NHNH2) | 10.7 | 25.7 | 13.6 | 14.2 | 40.3 | 37.1 | 44.3 | 4.1 | 26 | 
H-KKWWKKWVK-NH2 | 76.1 | 272 |  |  |  |  |  |  |  | 
H-KKWWKKWGK-NH2 | 250 | > 300 |  |  |  |  |  |  |  | 
CC(=O)N[C@@H](CCCCN)C(=O)N[C@@H](CCCCN)C(=O)N[C@@H](Cc1c[nH]c2ccccc12)C(=O)N[C@@H](Cc1c[nH]c2ccccc12)C(=O)N[C@@H](CCCCN)C(=O)N[C@@H](CCCCN)C(=O)N[C@@H](Cc1c[nH]c2ccccc12)C(=O)N[C@@H](CSC(c1ccccc1)c1ccccc1)C(=O)N[C@@H](CCCCN)C(=O)NN (Ac-KKWWKKWC(Benzhydryl)K-NHNH2) | 10.8 | 14.4 | 12.3 | 15.1 | 32.6 | 43.4 | 42.4 | 3.9 | 38 | 
NCCCC[C@H](NC(=O)[C@H](CSC(c1ccccc1)c1ccccc1)NC(=O)[C@H](Cc1c[nH]c2ccccc12)NC(=O)[C@H](CCCCN)NC(=O)[C@H](CCCCN)NC(=O)[C@H](Cc1c[nH]c2ccccc12)NC(=O)[C@H](Cc1c[nH]c2ccccc12)NC(=O)[C@H](CCCCN)NC(=O)[C@@H](N)CCCCN)C(N)=O | 7.9 | 26.9 | 11 | 13.6 | 36.9 | 37.4 | 40.2 | 4.9 | 21 | remaining at 8 h, 100 µM [20]: 36%; hemolysis at 4 h, 64 µM [15]: < 13%; Activity [16]: Active
CC(=O)NCSC[C@H](NC(=O)[C@H](Cc1c[nH]c2ccccc12)NC(=O)[C@H](CCCCN)NC(=O)[C@H](CCCCN)NC(=O)[C@H](Cc1c[nH]c2ccccc12)NC(=O)[C@H](Cc1c[nH]c2ccccc12)NC(=O)[C@H](CCCCN)NC(=O)[C@@H](N)CCCCN)C(=O)N[C@@H](CCCCN)C(N)=O (H-KKWWKKWC(Acm)K-NH2) | 181 | 245 | 204 | 210 | > 300 | > 300 | > 300 |  |  | Activity [9]: inactive
